Reference: patent US20250230193A1, “CYCLIC COMPOUND HAVING SELECTIVE KRAS INHIBITORY EFFECT ON HRAS AND NRAS” (CHUGAI SEIYAKU KABUSHIKI KAISHA, priority 2022, published 2025)

Tests used:
[1] = target: GDP-bound NRAS wild-type protein (Homo sapiens, UniProt P01111); assay: Binding to NRAS by surface plasmon resonance (SPR), Single Cycle Kinetics; details: KD ratio, GDP-bound NRAS wild-type vs GDP-bound KRAS wild-type, SPR
[2] = target: GDP-bound HRAS wild-type protein (Homo sapiens, UniProt P01112); assay: Binding to HRAS by surface plasmon resonance (SPR), Single Cycle Kinetics; details: KD ratio, GDP-bound HRAS wild-type vs GDP-bound KRAS wild-type, SPR
Chain of GDP-bound HRAS wild-type protein (P01112 whole entry): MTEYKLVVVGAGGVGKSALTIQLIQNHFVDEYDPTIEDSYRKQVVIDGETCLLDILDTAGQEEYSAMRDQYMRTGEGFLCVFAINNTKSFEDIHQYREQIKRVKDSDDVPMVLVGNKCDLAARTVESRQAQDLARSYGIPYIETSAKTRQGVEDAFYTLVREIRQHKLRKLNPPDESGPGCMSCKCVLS

Chain of GDP-bound NRAS wild-type protein (P01111 whole entry): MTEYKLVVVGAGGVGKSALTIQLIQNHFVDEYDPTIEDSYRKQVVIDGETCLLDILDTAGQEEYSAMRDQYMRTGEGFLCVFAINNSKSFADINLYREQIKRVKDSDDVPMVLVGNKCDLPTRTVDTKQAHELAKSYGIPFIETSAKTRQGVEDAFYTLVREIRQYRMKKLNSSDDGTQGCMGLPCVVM

Compound	NRAS/KRAS (ratio of KD value for NRAS to KD value for KRAS) [1]	HRAS/KRAS (ratio of KD value for HRAS to KD value for KRAS) [2]
CC[C@H](C)[C@@H]1NC(=O)[C@H](CC)N(C)C(=O)C[C@@H](C(=O)N(C)C)N(C)C(=O)[C@H](C2CCCC2)N(C)C(=O)C2(CC(C)(C)C2)NC(=O)[C@@H]2C[C@H](C)CN2C(=O)[C@H](CCc2ccc(C(F)(F)F)c(Cl)c2)NC(=O)CN(C)C(=O)[C@H](Cc2ccc(C)cc2)N2CC/C=C\C[C@@H](C2=O)N(C)C(=O)CN(C)C1=O [PP1844]	A (a compound having 10 or more and less than 20 is denoted as A)	B (a compound having 3 or more and less than 10 is denoted as B)
CC[C@H](C)[C@@H]1NC(=O)[C@H](CC)N(C)C(=O)C[C@@H](C(=O)N(C)C)N(C)C(=O)[C@H](C2CCCC2)N(C)C(=O)C2(CC(C)(C)C2)NC(=O)[C@@H]2C[C@@H](C)CN2C(=O)[C@H](CCc2ccc(C(F)(F)F)c(Cl)c2)NC(=O)CN(C)C(=O)[C@H](Cc2ccc(C)cc2)N2CC/C=C\C[C@@H](C2=O)N(C)C(=O)CN(C)C1=O [PP1846]	A (a compound having 10 or more and less than 20 is denoted as A)	B (a compound having 3 or more and less than 10 is denoted as B)
CC[C@H](C)[C@@H]1NC(=O)[C@H](CC(C)C)N(C)C(=O)C[C@@H](C(=O)N(CC)CC)N(C)C(=O)[C@H](C2CCCC2)N(C)C(=O)C2(CCC2)NC(=O)[C@@H]2C[C@@H](C)CN2C(=O)[C@H](CCc2ccc(C(F)(F)F)c(OC)c2)NC(=O)CN(C)C(=O)[C@H](Cc2ccc(C)cc2)N2CC/C=C\C[C@@H](C2=O)N(C)C(=O)CN(C)C1=O [PP1849]	A (a compound having 10 or more and less than 20 is denoted as A)	A (a compound having 10 or more and less than 20 is denoted as A)
CCO[C@@H]1C[C@H]2C(=O)NC3(CCC3)C(=O)N(C)[C@@H](C3CCCC3)C(=O)N(C)[C@H](C(=O)N(CC)CC)CC(=O)N(C)[C@@H](CC(C)C)C(=O)N[C@@H]([C@@H](C)CC)C(=O)N(C)CC(=O)N(C)[C@H]3C/C=C\CCN(C3=O)[C@@H](Cc3ccc(C)cc3)C(=O)N(C)CC(=O)N[C@@H](CCc3ccc(C(F)(F)F)c(OC)c3)C(=O)N2C1 [PP1851]	A (a compound having 10 or more and less than 20 is denoted as A)	A (a compound having 10 or more and less than 20 is denoted as A)
CC[C@H](C)[C@@H]1NC(=O)[C@H](CC(C)C)N(C)C(=O)C[C@@H](C(=O)N(C)C)N(C)C(=O)[C@H](C2CCCC2)N(C)C(=O)C2(CCC2)NC(=O)[C@@H]2C[C@H](C)CN2C(=O)[C@H](CCc2ccc(C(F)(F)F)c(Cl)c2)NC(=O)CN(C)C(=O)[C@H](Cc2ccc(C)cc2)N2CC/C=C\C[C@@H](C2=O)N(C)C(=O)CN(C)C1=O [PP1852]	A (a compound having 10 or more and less than 20 is denoted as A)	B (a compound having 3 or more and less than 10 is denoted as B)
CC[C@H](C)[C@@H]1NC(=O)[C@H](CC(C)C)N(C)C(=O)C[C@@H](C(=O)N(C)C)N(C)C(=O)[C@H](C2CCCC2)N(C)C(=O)C2(CCC2)NC(=O)[C@@H]2C[C@@H](C)CN2C(=O)[C@H](CCc2ccc(C(F)(F)F)c(Cl)c2)NC(=O)CN(C)C(=O)[C@H](Cc2ccc(C)cc2)N2CC/C=C\C[C@@H](C2=O)N(C)C(=O)CN(C)C1=O [PP1854]	A (a compound having 10 or more and less than 20 is denoted as A)	A (a compound having 10 or more and less than 20 is denoted as A)
CC[C@H](C)[C@@H]1NC(=O)[C@H](CC)N(C)C(=O)C[C@@H](C(=O)N(C)CC)N(C)C(=O)[C@H](C2CCCC2)N(C)C(=O)C2(CCC2)NC(=O)[C@@H]2C[C@@H](C)CN2C(=O)[C@H](CCc2ccc(C(F)(F)F)c(OC)c2)NC(=O)CN(C)C(=O)[C@H](Cc2ccc(C)cc2)N2CC/C=C\C[C@@H](C2=O)N(C)C(=O)CN(C)C1=O [PP1855]	AA (a compound having 20 or more is denoted as AA)	A (a compound having 10 or more and less than 20 is denoted as A)
